{"source": "patent US10888544B2", "about": "“Methods for treating Gaucher disease” (Genzyme Corporation, priority 2017, dated 2021)", "key": {"[1]": {"experiment": "Safety evaluation in the hepatic impairment single dose study (Example 1)", "format": "in vivo, human", "procedure": "The safety evaluation was based upon the review of the individual values (clinically significant abnormalities) and descriptive statistics (summary tables). All safety analyses were performed using the safety population and were based on the on-treatment phase (defined as the time from investigational medicinal product [IMP] administration up to Day 3 visit, inclusive). For laboratory, vital signs, and ECG data, potentially clinically significant abnormalities (PCSAs) were analyzed using the 24 May 2014 version of the PCSA list. Electrocardiogram parameters were obtained from automatic reading of 12-lead ECGs and were analyzed as raw parameter values and change from baseline. For vital signs, raw data and changes from baseline were summarized using descriptive statistics by population group and time point. All individual data for biochemistry, hematology, and qualitative urinary tests were listed.\nAdverse events were coded according to the Medical Dictionary for Regulatory Activities (MedDRA v.19.1) and classified into predefined standard categories according to chronological criteria: • Pretreatment adverse events (AEs), defined as AEs that occurred, worsened (according to Investigator opinion), or became serious during the pretreatment phase (defined as the time between the signature of the informed consent and IMP administration [excluded]); • Treatment-emergent AEs (TEAEs), defined as AEs that occurred, worsened, or became serious during the on-treatment phase; • Posttreatment AEs, defined as AEs that occurred, worsened, or became serious during the posttreatment phase (defined as the time after Day 3 visit through completion of EOS).\nAll AEs reported in the study were listed and sorted by subject, onset date and time. The number and percentage of subjects with TEAEs were listed by population group, primary system-organ class (SOC), preferred term (PT), and AE diagnosis."}, "[2]": {"experiment": "Safety evaluation in the renal impairment single dose study (Example 3)", "format": "in vivo, human", "procedure": "The safety evaluation was based on the review of the individual values (clinically significant abnormalities) and descriptive statistics (summary tables). All safety analyses were performed using the safety population and based on the on-treatment phase (defined as the start time of investigational medicinal product [IMP] administration up to Day 3 visit). For laboratory, vital sign, and ECG data, the Potentially Clinically Significant Abnormalities (PCSAs) were analyzed using PCSA list (Version 3.0, 24 May 2014). Electrocardiogram parameters were obtained from automatic reading of the 12-lead ECGs and were analyzed as raw parameter value and change from baseline. For vital signs, raw data and changes from baseline were summarized using descriptive statistics by population group and time of measurement. All individual data for biochemistry, hematology, and qualitative urinary tests were listed.\nVital signs and ECG readings were analyzed as raw parameter value and change from baseline.\nAdverse events were coded according to the Medical Dictionary for Regulatory Activities (MedDRA, version 19.1). They were classified into pre-defined standard categories according to chronological criteria: • Pretreatment adverse events: AEs that occurred, worsened (according to the Investigator's opinion) or became serious during the pretreatment phase (defined as the time between the signature of the informed consent and IMP administration [excluded]); • Treatment-emergent adverse events (TEAEs): AEs that occurred, worsened or became serious during the on-treatment phase; • Posttreatment adverse events: AEs that occurred, worsened or became serious during the posttreatment phase (defined as starting after the Day 3 visit and ending with EOS).\nThe number and percentage of subjects with TEAEs were listed by population group, primary system-organ class (SOC), preferred term (PT), and AE diagnosis."}, "[3]": {"details": "hepatic impairment study, single dose"}, "[4]": {"details": "renal impairment study, single dose"}}, "data": [{"smiles": "CCCCCCCC(=O)N[C@H](CN1CCCC1)[C@H](O)c1ccc2c(c1)OCCO2", "note": "[eliglustat, N-((1R,2R)-1-(2,3-dihydrobenzo[b][1,4]dioxin-6-yl)-1-hydroxy-3-(pyrrolidin-1-yl)propan-2-yl)octanamide]", "values": [{"measurement": "Total number of mild TEAEs observed", "setting": "[1]; all groups (healthy, mild HI, moderate HI), in 5 subjects, single dose", "value": 6}, {"measurement": "Deaths or other significant AEs", "setting": "[1]; [3]", "value": "no deaths or other significant AEs"}, {"measurement": "Serious adverse events", "setting": "[1]; [3]", "value": "No serious adverse events were reported"}, {"measurement": "Treatment emergent PCSA (laboratory values, vital signs, ECGs)", "setting": "[1]; [3]", "value": "no treatment emergent PCSA that were clinically relevant"}, {"measurement": "TEAEs considered related to study drug by the investigator", "setting": "[1]; in 3 subjects: dysgeusia in 2 moderate HI subjects, nausea and headache in 1 healthy subject", "value": "Four"}, {"measurement": "Total number of mild TEAEs observed", "setting": "[2]; in 1 subject, considered related to study drug: fatigue in a healthy subject", "value": "one"}, {"measurement": "Deaths or withdrawals due to AEs", "setting": "[2]; [4]", "value": "no deaths or withdrawals due to AEs"}, {"measurement": "Serious adverse events", "setting": "[2]; [4]", "value": "No serious adverse events were reported"}, {"measurement": "Treatment emergent PCSA (laboratory values, vital signs, ECGs)", "setting": "[2]; [4]", "value": "no treatment emergent PCSA that were clinically relevant"}]}]}
